# Patent publication US12201723B2, “Combined pharmaceutical formulation comprising gemcitabine-containing liposome composition and immune checkpoint inhibitor” (FUJIFILM Corporation, priority 2018, dated 2025)
# Key:
# [1] = tested on: EMT6 tumor cells; test: Drug efficacy test with combined use of anti-CTLA-4 antibody in tumor-bearing model mouse with subcutaneous transplantation of EMT6
# Description: The anti-CTLA-4 antibody (hereinafter, also referred to as CTLA-4), Gem, and the liposome composition according to the embodiment of the present invention were used as test substances. […] The liposome composition according to the embodiment of the present invention was diluted with 5% Glu prior to use.
# 1.7×10^6 EMT6 cells, which are a mouse breast cancer cell line, were subcutaneously transplanted into the flank of female Balb/c mice to form subcutaneous tumors. Using the tumor volume as an index, inhibitory effects of combined administration of CTLA-4 and Gem and combined administration of CTLA-4 and the liposome composition according to the embodiment of the present invention on subcutaneous tumors were evaluated.
# CTLA-4 and a solvent therefor (PBS) were intraperitoneally administered twice a week for a total of 3 weeks, and Gem, the liposome composition according to the embodiment of the present invention, and a solvent therefor (5% Glu) were administered once a week by tail vein administration for a total of 3 weeks.
# After the 3-week administration was completed, the drug was discontinued, and the tumor volume measurement was continued for 4 weeks. Test subjects with a tumor volume of more than 10% of body weight were euthanized during the test, and drug efficacy analysis was carried out based on the survival rate (tumor-free survival %).
# Group configuration was set to a combination of 5% Glu and PBS for Group 1, a combination of 5% Glu and CTLA-4 (10 mg/kg) for Group 2, a combination of Gem (240 mg/kg) and PBS for Group 3, a combination of Gem (240 mg/kg) and CTLA-4 (10 mg/kg) for Group 4, a combination of the liposome composition according to the embodiment of the present invention (1 mg/kg) and PBS for Group 5, a combination of the liposome composition according to the embodiment of the present invention (1 mg/kg) and CTLA-4 (10 mg/kg) for Group 6, a combination of the liposome composition according to the embodiment of the present invention (4 mg/kg) and PBS for Group 7, and a combination of the liposome composition according to the embodiment of the present invention (4 mg/kg) and CTLA-4 (10 mg/kg) for Group 8.
# (§1) In addition, Lipo (1) and Lipo (4) mean that the liposome composition according to the embodiment of the present invention was administered to a subject at a dose of 1 mg/kg and a dose of 4 mg/kg, respectively.
# The survival rate (tumor-free survival %) in a case where a test subject with a tumor volume of more than 10% of body weight was euthanized was calculated, and the results of a survival curve by the Kaplan-Meier method are shown in FIG. 29. […] As a statistical analysis of an effect of prolonging the survival time, a log-rank test was carried out, and a p value of less than 5% between the groups was determined to have a statistically significant difference. Graghpad Prism version 5.03 was used for the calculation of median survival calculated from the survival curve by Kaplan-Meier method and the statistical analysis.
# [2] = tested on: EMT6 tumor cells; test: Drug efficacy test with combined use of PD-1 in tumor-bearing model mouse with subcutaneous transplantation of EMT6; format: in vivo
# From the text: As the test substance, the same substance as in Example 1 was used.
# Changes in tumor volume are shown in FIG. 12 (mean value) and FIGS. 13 to 20 (on the basis of an individual). […] In Table 5 and Table 6, “Number of test subjects in complete remission” means that the tumor volume was zero.
# [3] = tested on: intratumoral immune cells (CD8-positive T cells, M1 and M2 macrophages) of EMT6 tumors; test: Changes in immune cell composition in tumor in tumor-bearing model mouse with subcutaneous transplantation of EMT6 (flow cytometry); format: in vivo; conditions: tumors excised Days 16 and 17 after start; Gem 240 mg/kg or Lipo 4 mg/kg 3 times; CTLA-4 10 mg/kg or PBS 5 times
# From the text: It is said that a high percentage of CD8-positive T cells in the tumor and a high ratio of M1 macrophages compared to M2 macrophages result in an antitumor environment (reference: J Clin Invest. 2012; 122(3); 787-95).
# Tumors were excised on Days 16 and 17 after the start of administration and used for analysis of intratumoral immune cells.
# The excised tumor was made into a cell-dispersed state using Tumor Dissociation Kit, mouse (catalog number 130-096-730, manufactured by Miltenyi Biotec GmbH), and intratumoral immune cells were isolated using CD45 (TIL) MicroBeads (catalog number 130-110-618, manufactured by Miltenyi Biotec GmbH). Dead cells were stained using LIVE/DEAD (trademark) Fixable Yellow Dead Cell Stain Kit (catalog number L34968, manufactured by Invitrogen Corporation), and various immune cell markers were stained using the following fluorescently labeled antibodies. […] The samples were analyzed using a flow cytometer (Attune NxT, manufactured by Invitrogen Corporation). CD8-positive T cells (CD3-positive, CD8-positive), M1 macrophages (CD11b-positive, F4/80-positive, MHC Class II-positive, CD206-negative), and M2 macrophages (CD11b-positive, F4/80-positive, MHC Class II-negative, CD206-positive) were identified, and the percentage of each cell group was calculated.
# [4] = tested on: EMT6 tumor cells; test: Drug efficacy test with combined use of PD-L1 in tumor-bearing model mouse with subcutaneous transplantation of EMT6
# From the text: An anti-PD-L1 antibody (hereinafter, also referred to as PD-L1), gemcitabine (hereinafter, also referred to as Gem), and gemcitabine-containing liposome composition (hereinafter, also referred to as liposome composition according to the embodiment of the present invention) were used as test substances. Gemcitabine hydrochloride (manufactured by Teva Pharmaceutical Industries Ltd.) dissolved in physiological saline was used as Gem. The liposome composition according to the embodiment of the present invention was diluted with a 5% glucose solution for injection (hereinafter, also referred to as 5% Glu; 0.05 g/mL) prior to use.
# 3×10^6 EMT6 cells, which are a mouse breast cancer cell line, were subcutaneously transplanted into the flank of female Balb mice to form subcutaneous tumors. Using the tumor volume as an index, inhibitory effects of combined administration of PD-L1 and Gem and combined administration of PD-L1 and the liposome composition according to the embodiment of the present invention on subcutaneous tumors were evaluated.
# PD-L1 and an isotype control antibody thereof (hereinafter, also referred to as Iso antibody) were intraperitoneally administered twice a week for a total of 3 weeks, and Gem, the liposome composition according to the embodiment of the present invention, and a solvent therefor (5% Glu) were administered once a week by tail vein administration for a total of 3 weeks.
# After the 3-week administration was completed, the drug was discontinued, and the tumor volume measurement was continued for 2 weeks. Test subjects with a tumor volume of more than 10% of body weight were euthanized during the test, and drug efficacy analysis was carried out based on the survival rate (tumor-free survival %).
# Group configuration was set to a combination of 5% Glu and Iso antibody (10 mg/kg) for Group 1, a combination of 5% Glu and PD-L1 (10 mg/kg) for Group 2, a combination of Gem (240 mg/kg) and Iso antibody (10 mg/kg) for Group 3, a combination of Gem (240 mg/kg) and PD-L1 (10 mg/kg) for Group 4, a combination of the liposome composition according to the embodiment of the present invention (1 mg/kg) and Iso antibody (10 mg/kg) for Group 5, a combination of the liposome composition according to the embodiment of the present invention (1 mg/kg) and PD-L1 (10 mg/kg) for Group 6, a combination of the liposome composition according to the embodiment of the present invention (4 mg/kg) and Iso antibody (10 mg/kg) for Group 7, and a combination of the liposome composition according to the embodiment of the present invention (4 mg/kg) and PD-L1 (10 mg/kg) for Group 8.
# as §1
# As a statistical analysis of an effect of prolonging the survival time, a log-rank test was carried out, and a p value of less than 5% between the groups was determined to have a statistically significant difference.
# [5] = Gem 240 mg/kg or Lipo 1 mg/kg, CTLA-4 10 mg/kg or PBS
compound,measurement,setting,value
"Nc1ccn([C@@H]2O[C@H](CO)[C@@H](O)C2(F)F)c(=O)n1 [Gem, (+)-2′-deoxy-2′,2′-difluorocytidine]",Median survival Percentage (control group / comparative group),[1]; [5],1.40
same,tumor growth inhibitory effect (in words),[1]; [5],tumor growth could not be stopped
same,Median survival,"[1]; Kaplan-Meier, euthanasia at tumor volume >10% of body weight, Gem 240 mg/kg or Lipo 1 mg/kg, CTLA-4 10 mg/kg or PBS",29.5
same,Complete remission rate (%),"[1]; by day 52, Gem 240 mg/kg or Lipo 1 mg/kg, CTLA-4 10 mg/kg or PBS",0%
same,Number of test subjects in complete remission,"[1]; by post-transplantation day 52, 8 per group, Gem 240 mg/kg or Lipo 1 mg/kg once/3W tail, CTLA-4 10 mg/kg or PBS twice/3W i.p.",0
same,test subjects subjected to euthanasia by the day of test termination,"[1]; post-transplantation day 52, out of 8, Gem 240 mg/kg or Lipo 1 mg/kg, CTLA-4 10 mg/kg or PBS",All test subjects
same,Log-rank Test Determination,"[1]; single agents vs 5% Glu + PBS, combinations vs same drug + PBS, Gem 240 mg/kg or Lipo 1 mg/kg, CTLA-4 10 mg/kg",b (“b” indicates p<0.001)
same,effect of prolonging the survival time (in words),"[1]; single agents vs Group 1, combinations vs same drug + PBS, Gem 240 mg/kg or Lipo 1 mg/kg, CTLA-4 10 mg/kg",statistically significant effect
same,tumor growth inhibitory effect (in words),"[2]; Gem 240 mg/kg or Lipo 2 mg/kg, PD-1 10 mg/kg or PBS",tumor growth could not be stopped
same,Complete remission rate (%),"[2]; by day 41, Gem 240 mg/kg or Lipo 2 mg/kg, PD-1 10 mg/kg or PBS",0%
same,Number of test subjects in complete remission,"[2]; by post-transplantation day 41, 8 per group, Gem 240 mg/kg or Lipo 2 mg/kg once/3W tail, PD-1 10 mg/kg or PBS twice/3W i.p.",0
same,Tumor volume mean value (mm^3),"[2]; day 6 after transplantation, Gem 240 mg/kg or Lipo 2 mg/kg, PD-1 10 mg/kg or PBS",432 mm^3
same,Tumor volume mean value (mm^3),"[2]; day 9 after transplantation, Gem 240 mg/kg or Lipo 2 mg/kg, PD-1 10 mg/kg or PBS",473 mm^3
same,Tumor volume mean value (mm^3),"[2]; day 13 after transplantation, Gem 240 mg/kg or Lipo 2 mg/kg, PD-1 10 mg/kg or PBS",1129 mm^3
same,Tumor volume mean value (mm^3),"[2]; day 16 after transplantation, Gem 240 mg/kg or Lipo 2 mg/kg, PD-1 10 mg/kg or PBS",1228 mm^3
same,Tumor volume mean value (mm^3),"[2]; day 20 after transplantation, Gem 240 mg/kg or Lipo 2 mg/kg, PD-1 10 mg/kg or PBS",2265 mm^3
same,Tumor volume mean value (mm^3),"[2]; day 23 after transplantation, Gem 240 mg/kg or Lipo 2 mg/kg, PD-1 10 mg/kg or PBS",3521 mm^3
same,animals subjected to euthanasia by the day of test termination,"[2]; post-transplantation day 41, Gem 240 mg/kg or Lipo 2 mg/kg, PD-1 10 mg/kg or PBS",all animals
same,percentage of CD8-positive T cells in the tumor (in words),[3],not changed
same,tumor growth inhibitory effect (in words),"[4]; Gem 240 mg/kg or Lipo 1 mg/kg, PD-L1 or Iso antibody 10 mg/kg",tumor growth could not be stopped
same,Median survival,"[4]; Kaplan-Meier, euthanasia at tumor volume >10% of body weight, Gem 240 mg/kg or Lipo 1 mg/kg, PD-L1 or Iso antibody 10 mg/kg",20
same,Complete remission rate (%),"[4]; by day 41, Gem 240 mg/kg or Lipo 1 mg/kg, PD-L1 or Iso antibody 10 mg/kg",0%
same,Number of test subjects in complete remission,"[4]; by post-transplantation day 41, 8 per group, Gem 240 mg/kg or Lipo 1 mg/kg once/3W tail, PD-L1 or Iso antibody 10 mg/kg twice/3W i.p.",0
same,test subjects subjected to euthanasia by the day of test termination,"[4]; post-transplantation day 41, Gem 240 mg/kg or Lipo 1 mg/kg, PD-L1 or Iso antibody 10 mg/kg",all test subjects
same,effect of prolonging the survival time (in words),"[4]; single agents vs Group 1, combinations vs same drug + Iso antibody, Gem 240 mg/kg or Lipo 1 mg/kg, PD-L1 10 mg/kg",No significant prolongation
